The values that follow come from ChEMBL document CHEMBL5131500, “High Plasticity of the Amicetin Biosynthetic Pathway in Streptomyces sp. SHP 22-7 Led to the Discovery of Streptcytosine P and Cytosaminomycins F and G and Facilitated the Production of 12F-Plicacetin” (J Nat Prod, 2022).

≈ marks a conversion by molar mass, not a printed value.

In one experiment the test system is Staphylococcus aureus. As to the kind of experiment: Antibacterial activity against Staphylococcus aureus NCTC 8325 assessed as bacterial growth inhibition incubated over night by two-fold serial dilution method.
Conditions: not given
The format is functional.
For orientation: MIC means the lowest concentration found to suppress growth. As to `CC(C)CC(=O)Nc1ccn([C@H]2CC[C@H](O)[C@@H](C)O2)c(=O)n1`, the MIC was more than 32 µg/mL.
Same read-out and setting: the figure for `CS/C=C/C(=O)Nc1ccn([C@H]2CC[C@H](O[C@H]3O[C@H](C)[C@@H](N(C)C)[C@H](O)[C@H]3O)[C@@H](C)O2)c(=O)n1` is 16 µg/mL (≈ 32.1 µM).

A further experiment relates to Klebsiella aerogenes. As to the kind of experiment: Antibacterial activity against Enterobacter aerogenes ATCC 13048 assessed as bacterial growth inhibition incubated over night by two-fold serial dilution method. The format is functional.
Conditions: not given
Consider `CC(C)CC(=O)Nc1ccn([C@H]2CC[C@H](O)[C@@H](C)O2)c(=O)n1`, for which the MIC was more than 32 µg/mL.
Still for that read-out and setting: for `CS/C=C/C(=O)Nc1ccn([C@H]2CC[C@H](O[C@H]3O[C@H](C)[C@@H](N(C)C)[C@H](O)[C@H]3O)[C@@H](C)O2)c(=O)n1` the value was more than 32 µg/mL.

The next experiment relates to Pseudomonas aeruginosa. As to the kind of experiment: Antibacterial activity against Pseudomonas aeruginosa ATCC 27853 assessed as bacterial growth inhibition incubated over night by two-fold serial dilution method. The class given is functional.
Conditions: not given
`CC(C)CC(=O)Nc1ccn([C@H]2CC[C@H](O)[C@@H](C)O2)c(=O)n1`: the MIC is more than 32 µg/mL.
Still for that read-out and setting: for `CS/C=C/C(=O)Nc1ccn([C@H]2CC[C@H](O[C@H]3O[C@H](C)[C@@H](N(C)C)[C@H](O)[C@H]3O)[C@@H](C)O2)c(=O)n1` the value was more than 32 µg/mL.

Another experiment relates to Mycobacterium tuberculosis. As to the kind of experiment: Antitubercular activity against Mycobacterium tuberculosis H37Rv ATCC 25618 assessed as bacterial growth inhibition incubated for 7 days by resazurin microtiter assay. The class given is functional. As to conditions: H37Rv ATCC 25618, 168 h, time 7 day. Background: Alamar Blue is a resazurin reagent that responds to reducing activity.
Turning to `CS/C=C/C(=O)Nc1ccn([C@H]2CC[C@H](O[C@H]3O[C@H](C)[C@@H](N(C)C)[C@H](O)[C@H]3O)[C@@H](C)O2)c(=O)n1`, the MIC95 turned out to be 8 µM (≈ 3.99 µg/mL).

The subject of a further experiment is Candida albicans. As to the kind of experiment: Antifungal activity against Candida albicans Tu01 assessed as fungal growth inhibition incubated for 48 hrs by broth microdilution method. The class given is functional.
Conditions: not given
On the technique in general: Broth dilution looks for growth in wells or tubes with falling amounts of substance.
With `CC(C)CC(=O)Nc1ccn([C@H]2CC[C@H](O)[C@@H](C)O2)c(=O)n1`, the MIC is more than 32 µg/mL.
Same read-out and setting: the figure for `CS/C=C/C(=O)Nc1ccn([C@H]2CC[C@H](O[C@H]3O[C@H](C)[C@@H](N(C)C)[C@H](O)[C@H]3O)[C@@H](C)O2)c(=O)n1` is more than 32 µg/mL.

For a further experiment, the system named is Mycolicibacterium smegmatis. Kind of experiment: Antibacterial activity against Mycobacterium smegmatis mc2 155 assessed as bacterial growth inhibition incubated over night by two-fold serial dilution method.
Conditions: not given
The format is functional.
Regarding `CC(C)CC(=O)Nc1ccn([C@H]2CC[C@H](O)[C@@H](C)O2)c(=O)n1`, the MIC was more than 32 µg/mL.
On the same count and under the same terms, for `CS/C=C/C(=O)Nc1ccn([C@H]2CC[C@H](O[C@H]3O[C@H](C)[C@@H](N(C)C)[C@H](O)[C@H]3O)[C@@H](C)O2)c(=O)n1` the value was 4 µg/mL (≈ 8.02 µM).

The subject of a further experiment is Enterococcus faecium. Kind of experiment: Antibacterial activity against Enterococcus faecium BM4147-1 assessed as bacterial growth inhibition incubated over night by two-fold serial dilution method. The class given is functional.
Conditions: not given
In the case of `CC(C)CC(=O)Nc1ccn([C@H]2CC[C@H](O)[C@@H](C)O2)c(=O)n1`, the MIC was more than 32 µg/mL.
Same read-out and setting: for `CS/C=C/C(=O)Nc1ccn([C@H]2CC[C@H](O[C@H]3O[C@H](C)[C@@H](N(C)C)[C@H](O)[C@H]3O)[C@@H](C)O2)c(=O)n1` the value was more than 32 µg/mL.

The subject of a further experiment is Staphylococcus aureus. Kind of experiment: Antibacterial activity against Staphylococcus aureus ATCC 29213 assessed as bacterial growth inhibition incubated over night by two-fold serial dilution method. The format is functional.
Conditions: not given
As to `CC(C)CC(=O)Nc1ccn([C@H]2CC[C@H](O)[C@@H](C)O2)c(=O)n1`, the MIC is more than 32 µg/mL.
For `CS/C=C/C(=O)Nc1ccn([C@H]2CC[C@H](O[C@H]3O[C@H](C)[C@@H](N(C)C)[C@H](O)[C@H]3O)[C@@H](C)O2)c(=O)n1`, the MIC is 16 µg/mL (≈ 32.1 µM).

The next experiment deals with Escherichia coli. Kind of experiment: Antibacterial activity against Escherichia coli ATCC 25922 assessed as bacterial growth inhibition incubated over night by two-fold serial dilution method. The format is functional.
Conditions: not given
Turning to `CC(C)CC(=O)Nc1ccn([C@H]2CC[C@H](O)[C@@H](C)O2)c(=O)n1`, the MIC is more than 32 µg/mL.
On the same count and under the same terms, for `CS/C=C/C(=O)Nc1ccn([C@H]2CC[C@H](O[C@H]3O[C@H](C)[C@@H](N(C)C)[C@H](O)[C@H]3O)[C@@H](C)O2)c(=O)n1` the value was more than 32 µg/mL.

For another experiment, the system named is Acinetobacter baumannii. As to the kind of experiment: Antibacterial activity against Acinetobacter baumannii 09987 assessed as bacterial growth inhibition incubated over night by two-fold serial dilution method. The format is functional.
Conditions: not given
Take `CC(C)CC(=O)Nc1ccn([C@H]2CC[C@H](O)[C@@H](C)O2)c(=O)n1`: the MIC is more than 32 µg/mL.
The same measure, in the same setting: the figure for `CS/C=C/C(=O)Nc1ccn([C@H]2CC[C@H](O[C@H]3O[C@H](C)[C@@H](N(C)C)[C@H](O)[C@H]3O)[C@@H](C)O2)c(=O)n1` is more than 32 µg/mL.

The test system of a further experiment is Bacillus subtilis. Kind of experiment: Antibacterial activity against Bacillus subtilis 168 assessed as bacterial growth inhibition incubated over night by two-fold serial dilution method. The format is functional.
Conditions: not given
Consider `CC(C)CC(=O)Nc1ccn([C@H]2CC[C@H](O)[C@@H](C)O2)c(=O)n1`, for which the MIC is more than 32 µg/mL.
The same measure, in the same setting: the figure for `CS/C=C/C(=O)Nc1ccn([C@H]2CC[C@H](O[C@H]3O[C@H](C)[C@@H](N(C)C)[C@H](O)[C@H]3O)[C@@H](C)O2)c(=O)n1` is 8 µg/mL (≈ 16 µM).

The next experiment concerns Klebsiella pneumoniae. Kind of experiment: Antibacterial activity against Klebsiella pneumoniae ATCC 12657 assessed as bacterial growth inhibition incubated over night by two-fold serial dilution method. The class given is functional.
Conditions: not given
As for `CC(C)CC(=O)Nc1ccn([C@H]2CC[C@H](O)[C@@H](C)O2)c(=O)n1`, the MIC was more than 32 µg/mL.
As for `CS/C=C/C(=O)Nc1ccn([C@H]2CC[C@H](O[C@H]3O[C@H](C)[C@@H](N(C)C)[C@H](O)[C@H]3O)[C@@H](C)O2)c(=O)n1`, the MIC is more than 32 µg/mL.

Another experiment relates to Nakaseomyces glabratus. Kind of experiment: Antifungal activity against Candida glabrata Tu04 assessed as fungal growth inhibition incubated for 48 hrs by broth microdilution method. The format is functional.
Conditions: not given
Take `CC(C)CC(=O)Nc1ccn([C@H]2CC[C@H](O)[C@@H](C)O2)c(=O)n1`: the MIC is more than 32 µg/mL.
Regarding `CS/C=C/C(=O)Nc1ccn([C@H]2CC[C@H](O[C@H]3O[C@H](C)[C@@H](N(C)C)[C@H](O)[C@H]3O)[C@@H](C)O2)c(=O)n1`, the MIC was more than 32 µg/mL.

In another experiment the test system is Escherichia coli. As to the kind of experiment: Antimicrobial activity against Escherichia coli MRE600 assessed as inhibition of translation using luciferin as substrate incubated for 2 hrs by chemiluminescence based cell free assay. The format is functional. As to conditions: MRE600, 2 h.
By IC50 is commonly meant the concentration that gives 50% inhibition. In the case of `CS/C=C/C(=O)Nc1ccn([C@H]2CC[C@H](O[C@H]3O[C@H](C)[C@@H](N(C)C)[C@H](O)[C@H]3O)[C@@H](C)O2)c(=O)n1`, the IC50 was found to be 1 µg/mL (≈ 2.01 µM).

A further experiment has as its system HeLa. Kind of experiment: Cytotoxicity against human HeLa cells assessed as reduction in cell viability after 24 hrs by resazurin dye based assay. The format is functional.
Conditions: not given
For `CC(C)CC(=O)Nc1ccn([C@H]2CC[C@H](O)[C@@H](C)O2)c(=O)n1`, the IC50 was more than 64 µg/mL.
The same measure, in the same setting: for `CS/C=C/C(=O)Nc1ccn([C@H]2CC[C@H](O[C@H]3O[C@H](C)[C@@H](N(C)C)[C@H](O)[C@H]3O)[C@@H](C)O2)c(=O)n1` the value was 1 µg/mL (≈ 2.01 µM).
